Test results published in article PMC11050599, “Novel Tetracyclic Azaphenothiazines with the Quinoline Ring as New Anticancer and Antibacterial Derivatives of Chlorpromazine” (International Journal of Molecular Sciences, 2024).
Converted amounts (≈) assume the structure as drawn. Like-named read-outs stand apart in the source and are kept apart here.

Tests used:
A549 (lung cancer) = test: MTT assay, A549 cells; format: cell-based, human; details: for IC50: Homo sapiens, A549, MTT, 72 h, mean SD, read-out: IC50 A549; for SI A549: SI = IC50 for normal cell line (HaCaT)/IC50 cancer cell line
Protocol: (§1) The human cell lines, such as A549 (lung cancer), MDA-MB-231 (breast cancer), MiaPaca-2 (pancreatic cancer), PC3 (metastatic prostate cancer), HCT-116 (colon carcinoma), and HaCaT (immortalized keratinocytes), were sourced from the American Type Culture Collection (ATCC) in Rockville, USA. Culturing conditions varied as follows: HCT116 cells were cultured in MEM (ThermoSci, Waltham, MA, USA), A549, MDA-MB-231, MiaPaca, HaCaT cells in DMEM High Glucose and PC3 cells were cultured in RPMI (Biowest SAS, Nuaillé, France). The growth medium consisted of 10% fetal bovine serum (FBS, Sigma-Aldrich, St. Louis, MO, USA), 20 mM HEPES (Biowest, Nuaillé, France), and antibiotics (100 U/mL of penicillin and 100 μg/mL of streptomycin) from Gibco, Grand Island, NY, USA. […] These compounds were added to 96-well plates containing study cells (1 × 10^4 cells per well) and incubated for 72 h. […] Cell absorbance results were incorporated into the formula for calculating the relative MTT level (%), enabling the assessment of cell viability following exposure to the test compounds. The cell viability percentage represents the MTT reduction in cells treated with the test compounds compared to the control sample, where only the medium was added to the cells.

[1] = test system: MDA-MB-231 (breast cancer); test: MTT assay, MDA-MB-231 cells; format: cell-based, human; details: for IC50: Homo sapiens, MDA-MB-231, MTT, 72 h, MDA-MB231, read-out: IC50 MDA; for SI MDA: SI = IC50 for normal cell line (HaCaT)/IC50 cancer cell line
Protocol: as §1

[2] = test system: HaCaT (immortalized human keratinocytes); test: MTT assay, HaCaT normal cells; format: cell-based; details: Homo sapiens, HaCaT, MTT, 72 h, normal cells
Protocol: as §1

[3] = test system: MiaPaCa-2 (pancreas cancer); test: MTT assay, MiaPaCa-2 cells; format: cell-based, human; details: for IC50: Homo sapiens, MIA PaCa-2, MTT, 72 h, read-out: IC50 MiaPaCa-2; for SI MiaPaCa-2: SI = IC50 for normal cell line (HaCaT)/IC50 cancer cell line
Protocol: as §1

PC3 (prostate cancer) = test: MTT assay, PC3 cells; format: cell-based, human; details: for IC50: Homo sapiens, PC-3, MTT, 72 h, read-out: IC50 PC3; for SI PC3: SI = IC50 for normal cell line (HaCaT)/IC50 cancer cell line
Protocol: as §1

HCT116 (colon cancer) = test: MTT assay, HCT116 cells; format: cell-based, human; details: for IC50: Homo sapiens, HCT-116, MTT, 72 h, read-out: IC50 HCT116; for SI HCT116: SI = IC50 for normal cell line (HaCaT)/IC50 cancer cell line
Protocol: as §1

E. coli ATCC 25922 = test: MIC broth microdilution; format: cell-based; details: Escherichia coli, ATCC25922; 19 h, 35 °C; read-out: MIC E. coli ATCC 25922
Excerpt: (§2) To evaluate the antibacterial effectiveness of chloroquinobenzothiazine derivatives, various bacterial strains from international microbe collections such as the American Type Culture Collection (ATCC) and the National Collection of Type Culture (NCTC) were examined, alongside a panel of clinical rods. This included two Gram-negative organisms, E. coli ATCC 25922 and P. aeruginosa ATCC 15442, and a series of six Gram-positive strains: S. aureus NCTC 4163; S. aureus ATCC 29213, 25923, and 6538; and S. epidermidis ATCC 12228 and 35984. […] The MIC was determined using the two-fold serial broth microdilution method in 96-well microtitration plates containing Mueller-Hinton II broth medium (Becton Dickinson, Franklin Lakes, NJ, USA). The final inoculum for all tested bacteria was adjusted to […] (colony-forming units per milliliter). The stock solution of the tested compounds was prepared in dimethyl sulfoxide (DMSO) and diluted to a maximum of 1% solvent content with a sterile medium.

P. aeruginosa ATCC 15442 = test: MIC broth microdilution; format: cell-based; details: Pseudomonas aeruginosa, ATCC15442; 19 h, 35 °C; read-out: MIC P. aeruginosa ATCC 15442
Excerpt: as §2

S. aureus ATCC 25923 = test: MIC broth microdilution; format: cell-based; details: Staphylococcus aureus, ATCC25923; 19 h, 35 °C; read-out: MIC S. aureus ATCC 25923
Excerpt: as §2

S. aureus ATCC 29213 = test: MIC broth microdilution; format: cell-based; details: Staphylococcus aureus, ATCC29213; 19 h, 35 °C; read-out: MIC S. aureus ATCC 29213
Excerpt: as §2

S. aureus ATCC 6538 = test: MIC broth microdilution; format: cell-based; details: Staphylococcus aureus, ATCC6538; 19 h, 35 °C; read-out: MIC S. aureus ATCC 6538
Excerpt: as §2

S. aureus NCTC 4163 = test: MIC broth microdilution; format: cell-based; details: Staphylococcus aureus, NCTC4163; 19 h, 35 °C; read-out: MIC S. aureus NCTC 4163
Excerpt: as §2

[4] = test system: S. epidermidis ATCC 12228; test: MIC broth microdilution; format: cell-based; details: Staphylococcus epidermidis, ATCC12228; 19 h, 35 °C; read-out: MIC S. epidermidis ATCC 12228
Excerpt: as §2

[5] = test system: S. epidermidis ATCC 35984; test: MIC broth microdilution; format: cell-based; details: Staphylococcus epidermidis, ATCC35984; 19 h, 35 °C; read-out: MIC S. epidermidis ATCC 35984
Excerpt: as §2

Row | IC50 (A549 (lung cancer)) [µM] | IC50 [1] [µM] | IC50 [3] [µM] | IC50 (PC3 (prostate cancer)) [µM] | IC50 (HCT116 (colon cancer)) [µM] | MIC (E. coli ATCC 25922) [µg/mL] | MIC (P. aeruginosa ATCC 15442) [µg/mL] | MIC (S. aureus ATCC 25923) [µg/mL] | MIC (S. aureus ATCC 29213) [µg/mL] | MIC (S. aureus ATCC 6538) [µg/mL] | MIC (S. aureus NCTC 4163) [µg/mL] | MIC [4] [µg/mL] | MIC [5] [µg/mL] | Structure (SMILES) | SI A549 (A549 (lung cancer)) | SI MDA [1] | IC50 ([2]; read-out: IC50 HaCaT (Table 3)) [µM] | IC50 ([2]; read-out: IC50 HaCaT (Table 4)) [µM] | SI MiaPaCa-2 [3] | SI PC3 (PC3 (prostate cancer)) | SI HCT116 (HCT116 (colon cancer))
1 | 27.5 ± 6.2 | > 100 | 37.4 ± 5.6 | > 100 | 49.6 ± 4.7 | > 256 | > 256 | > 256 | > 256 | > 256 | > 256 | > 256 | > 256 | Clc1ccc2c(c1)N(Cc1cn(-c3ccccc3)nn1)c1nc3ccccc3cc1S2 [Compound 27, 8-Chloro-6-((1-phenyl-1H-1,2,3-triazol-4-yl)methyl)-quino[3,2-b]benzo[1,4]thiazine] | 2.5 | 0.7 | 70.2 ± 10.4 | 71.7 ± 7.5 | 1.9 | 1.0 | 1.4
2 | 17.4 ± 4.1 | 77.1 ± 1.6 | 57.4 ± 9.6 | 77.1 ± 9.4 | 17.5 ± 1.4 | > 256 | > 256 | 16 (≈ 41.9 µM) | 16 (≈ 41.9 µM) | 16 (≈ 41.9 µM) | 16 (≈ 41.9 µM) | 16 (≈ 41.9 µM) | 16 (≈ 41.9 µM) | Clc1ccc2c(c1)N(CCN1CCCC1)c1nc3ccccc3cc1S2 [Compound 9, 8-Chloro-6-(2-(pyrrolidin-1-yl)ethyl)-quino[3,2-b]benzo[1,4]thiazine] | 5.7 | 1.3 | > 100 | – | 1.7 | 1.3 | 5.7
3 | > 100 | > 100 | – | – | – | > 256 | > 256 | > 256 | > 256 | > 256 | > 256 | > 256 | > 256 | Clc1ccc2c(c1)N(Cc1cn(CSc3ccccc3)nn1)c1nc3ccccc3cc1S2 [Compound 33, 8-Chloro-6-((1-((phenylthio)methyl)-1H-1,2,3-triazol-4-yl)methyl)-quino[3,2-b]benzo[1,4]thiazine] | 1.0 | 1.0 | > 100 | – | – | – | –
4 | > 100 | 95.8 ± 9.2 | – | – | – | > 256 | > 256 | > 256 | > 256 | > 256 | > 256 | > 256 | > 256 | C#CCN1c2cc(Cl)ccc2Sc2cc3ccccc3nc21 [Compound 26, 8-chloro-6-propynyquinobenzothiazine] | 1.0 | 0.7 | 71.7 ± 5.7 | – | – | – | –
5 | > 100 | > 100 | – | – | – | > 256 | > 256 | > 256 | > 256 | > 256 | > 256 | > 256 | > 256 | Cc1ccc(S(=O)(=O)NCCCN2c3cc(Cl)ccc3Sc3cc4ccccc4nc32)cc1 [Compound 24, N-(3-(8-Chloroquino[3,2-b]benzo[1,4]thiazin-6-yl)propyl)-4-methylbenzenesulfonamide] | 1.0 | 1.0 | > 100 | – | – | – | –
